Test results taken from patent US11524945B2, “Compounds for treating ILK-mediated diseases” (The Cleveland Clinic Foundation, priority 2018, dated 2022).
Entries after “also recorded” stand apart in the source; their conditions may differ. Read-outs that look alike come from different tables or passages of the source.

Legend:
EGFR = EGFR (Homo sapiens (Human), UniProt P00533); assay: EGFR binding affinity, EnSpire fluorescence intensity; conditions: same experimental conditions as ILK
kinases = assay: proteomic off target analysis vs known kinase inhibitors; conditions: FIG. 3, against FDA-approved kinase inhibitors
Source text: Higher selectivity score means stronger off target effects.
To elucidate definitively how Csbl-1 specifically binds to ILK, we determined the crystal structure of Csbl-1/ILK complex. […] Thus our structure provides a hypothetical atomic basis for understanding why Csbl-1 binds selectively to ILK but unfavorably to EGFR (Table 1).

Stability in SIF = assay type: physicochemical
CYP 1A2 = CYP 1A2 (Homo sapiens (Human), UniProt P05177); assay: CYP inhibition in human liver microsomes, 1A2; assay type: in vitro ADME
Sequence of CYP 1A2 (P05177 whole entry): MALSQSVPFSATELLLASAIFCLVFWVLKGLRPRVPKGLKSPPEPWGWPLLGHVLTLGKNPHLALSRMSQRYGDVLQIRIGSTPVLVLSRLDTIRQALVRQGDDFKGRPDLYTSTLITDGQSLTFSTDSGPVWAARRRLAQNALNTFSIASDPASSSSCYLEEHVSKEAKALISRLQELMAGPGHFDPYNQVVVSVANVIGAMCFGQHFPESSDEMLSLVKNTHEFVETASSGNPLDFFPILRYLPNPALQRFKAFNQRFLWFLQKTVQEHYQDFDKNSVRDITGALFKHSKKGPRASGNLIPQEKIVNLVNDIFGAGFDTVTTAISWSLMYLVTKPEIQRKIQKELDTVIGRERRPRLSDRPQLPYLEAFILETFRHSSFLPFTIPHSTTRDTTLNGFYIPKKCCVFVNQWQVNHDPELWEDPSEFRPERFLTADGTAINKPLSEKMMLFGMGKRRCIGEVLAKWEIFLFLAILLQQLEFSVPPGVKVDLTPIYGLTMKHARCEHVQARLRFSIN

CYP 2A6 = CYP 2A6 (Homo sapiens (Human), UniProt P11509); assay: CYP inhibition in human liver microsomes, 2A6; assay type: in vitro ADME
Sequence of CYP 2A6 (P11509 whole entry): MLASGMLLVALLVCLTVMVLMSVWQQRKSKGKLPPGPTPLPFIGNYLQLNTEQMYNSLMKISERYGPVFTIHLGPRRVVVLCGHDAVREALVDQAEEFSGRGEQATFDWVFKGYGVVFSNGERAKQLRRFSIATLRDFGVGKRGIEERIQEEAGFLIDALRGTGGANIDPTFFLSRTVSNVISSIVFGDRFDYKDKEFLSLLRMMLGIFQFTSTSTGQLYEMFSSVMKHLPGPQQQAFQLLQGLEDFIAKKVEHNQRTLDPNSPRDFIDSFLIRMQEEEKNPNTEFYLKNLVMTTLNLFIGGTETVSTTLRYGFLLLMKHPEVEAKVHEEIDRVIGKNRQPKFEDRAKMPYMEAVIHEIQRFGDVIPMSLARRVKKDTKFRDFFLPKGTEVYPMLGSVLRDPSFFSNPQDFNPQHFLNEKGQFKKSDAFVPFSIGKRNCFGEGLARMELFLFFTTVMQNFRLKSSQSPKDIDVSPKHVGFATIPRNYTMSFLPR

CYP 2B6 = CYP 2B6 (Homo sapiens (Human), UniProt P20813); assay: CYP inhibition in human liver microsomes, 2B6; assay type: in vitro ADME
Sequence of CYP 2B6 (P20813 whole entry): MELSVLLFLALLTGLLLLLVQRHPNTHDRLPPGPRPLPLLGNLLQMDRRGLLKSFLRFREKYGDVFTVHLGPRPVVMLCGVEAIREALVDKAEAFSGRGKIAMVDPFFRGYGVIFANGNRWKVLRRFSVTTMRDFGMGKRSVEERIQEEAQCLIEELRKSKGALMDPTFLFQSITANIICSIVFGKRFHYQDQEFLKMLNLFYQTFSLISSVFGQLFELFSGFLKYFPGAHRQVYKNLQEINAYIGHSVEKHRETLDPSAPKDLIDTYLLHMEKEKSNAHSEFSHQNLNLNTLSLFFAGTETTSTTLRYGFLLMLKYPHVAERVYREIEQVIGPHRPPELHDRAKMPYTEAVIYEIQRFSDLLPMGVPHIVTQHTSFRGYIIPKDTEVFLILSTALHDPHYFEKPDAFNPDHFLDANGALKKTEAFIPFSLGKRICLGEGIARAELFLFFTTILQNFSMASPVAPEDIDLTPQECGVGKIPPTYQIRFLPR

CYP 2D6 = CYP 2D6 (Homo sapiens (Human), UniProt P10635); assay: biochemical; assay type: in vitro ADME; conditions: Human Liver Microsomes
Sequence of CYP 2D6 (P10635 whole entry): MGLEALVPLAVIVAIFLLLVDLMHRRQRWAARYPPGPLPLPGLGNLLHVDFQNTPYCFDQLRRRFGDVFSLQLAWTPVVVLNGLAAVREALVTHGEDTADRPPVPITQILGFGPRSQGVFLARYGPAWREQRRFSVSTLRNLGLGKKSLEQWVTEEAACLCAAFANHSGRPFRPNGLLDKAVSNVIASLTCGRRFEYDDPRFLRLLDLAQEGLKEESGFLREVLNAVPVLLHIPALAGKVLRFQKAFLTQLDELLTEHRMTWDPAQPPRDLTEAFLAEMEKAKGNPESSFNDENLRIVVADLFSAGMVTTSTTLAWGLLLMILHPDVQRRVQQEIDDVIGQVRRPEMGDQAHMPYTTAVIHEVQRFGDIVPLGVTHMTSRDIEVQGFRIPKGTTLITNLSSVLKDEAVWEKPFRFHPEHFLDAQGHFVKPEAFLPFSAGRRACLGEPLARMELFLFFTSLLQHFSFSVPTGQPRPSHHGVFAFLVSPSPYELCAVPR

CYP 2E1 = CYP 2E1 (Homo sapiens (Human), UniProt P05181); assay: CYP inhibition in human liver microsomes, 2E1; assay type: in vitro ADME
Sequence of CYP 2E1 (P05181 whole entry): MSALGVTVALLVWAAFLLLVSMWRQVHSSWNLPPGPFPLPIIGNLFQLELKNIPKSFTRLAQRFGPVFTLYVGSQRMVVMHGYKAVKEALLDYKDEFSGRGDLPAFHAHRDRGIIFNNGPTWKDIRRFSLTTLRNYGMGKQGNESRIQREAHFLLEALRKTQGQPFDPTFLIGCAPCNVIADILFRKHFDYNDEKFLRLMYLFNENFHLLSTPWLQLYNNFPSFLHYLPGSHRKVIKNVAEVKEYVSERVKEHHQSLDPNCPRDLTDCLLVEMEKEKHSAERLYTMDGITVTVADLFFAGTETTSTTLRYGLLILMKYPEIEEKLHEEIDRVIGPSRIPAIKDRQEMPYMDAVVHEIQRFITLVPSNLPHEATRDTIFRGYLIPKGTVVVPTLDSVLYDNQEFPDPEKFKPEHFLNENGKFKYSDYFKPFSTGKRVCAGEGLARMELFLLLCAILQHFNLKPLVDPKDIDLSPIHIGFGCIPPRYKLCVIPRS

[1] = Metabolic stability in human liver microsomes; assay type: in vitro ADME; conditions: for Remaining Percentage (%): Human
HepG2 cells = assay: Mitochondrial toxicity in HepG2 cells; assay type: cell-based; conditions: for IC50: Homo sapiens, HepG2 cells
MDA-MB-231 cells = assay: Proliferation of triple negative breast cancer MDA-MB-231 cells; assay type: cell-based
Method: Cells were seeded at 20,000 cells/ml in 12 well plates in complete media. On day 3, the compounds were added at final 2 μM and the cells were counted every 3 days. […] Cells were seeded at 10,000 cells/ml in 12 well plates in complete media. The compounds were added at final 2 μM on day 2 and the cells were counted every 2 days.

[2] = tested on: human derived patient TNBC tumor (PDX); assay: TNBC PDX mice; assay type: in vivo; conditions: 200 mg/kg orally five times/week, in olive oil; day 27; listed as Csbl-1
Method: FIG. 8, panels A-C, show the effect of Csbl-1 on TNBC PDX mice. Csbl-1 was dissolved in olive oil. Five mice with TNBC were treated orally with Csbl-1 at 200 mg/kg five times/week vs 4 control mice without the treatment.
The next step was to evaluate the effect of Csbl-1 in mice bearing TNBC tumors. Given the fact that higher ILK expression level is correlated with poor outcome and reduced survival for TNBC patients (FIG. 6) and the above TNBC cell-based data, we decided to test whether Csbl-1 would be effective in suppressing the TNBC tumors in mice. […] Xenograft TNBC tumors were generated using MDA-MB231 on 8 mice. […] when the tumors were ˜3 mm, 4 mice were fed with Csbl-1 at 100 mg/kg five times/week and the other 4 mice (control, no drug) had no Csbl-1 treatment. […] We also examined the Csbl-1 effect on the mouse models with human derived patient TNBC tumor (PDX).

Sequence of EGFR (P00533 25-1210): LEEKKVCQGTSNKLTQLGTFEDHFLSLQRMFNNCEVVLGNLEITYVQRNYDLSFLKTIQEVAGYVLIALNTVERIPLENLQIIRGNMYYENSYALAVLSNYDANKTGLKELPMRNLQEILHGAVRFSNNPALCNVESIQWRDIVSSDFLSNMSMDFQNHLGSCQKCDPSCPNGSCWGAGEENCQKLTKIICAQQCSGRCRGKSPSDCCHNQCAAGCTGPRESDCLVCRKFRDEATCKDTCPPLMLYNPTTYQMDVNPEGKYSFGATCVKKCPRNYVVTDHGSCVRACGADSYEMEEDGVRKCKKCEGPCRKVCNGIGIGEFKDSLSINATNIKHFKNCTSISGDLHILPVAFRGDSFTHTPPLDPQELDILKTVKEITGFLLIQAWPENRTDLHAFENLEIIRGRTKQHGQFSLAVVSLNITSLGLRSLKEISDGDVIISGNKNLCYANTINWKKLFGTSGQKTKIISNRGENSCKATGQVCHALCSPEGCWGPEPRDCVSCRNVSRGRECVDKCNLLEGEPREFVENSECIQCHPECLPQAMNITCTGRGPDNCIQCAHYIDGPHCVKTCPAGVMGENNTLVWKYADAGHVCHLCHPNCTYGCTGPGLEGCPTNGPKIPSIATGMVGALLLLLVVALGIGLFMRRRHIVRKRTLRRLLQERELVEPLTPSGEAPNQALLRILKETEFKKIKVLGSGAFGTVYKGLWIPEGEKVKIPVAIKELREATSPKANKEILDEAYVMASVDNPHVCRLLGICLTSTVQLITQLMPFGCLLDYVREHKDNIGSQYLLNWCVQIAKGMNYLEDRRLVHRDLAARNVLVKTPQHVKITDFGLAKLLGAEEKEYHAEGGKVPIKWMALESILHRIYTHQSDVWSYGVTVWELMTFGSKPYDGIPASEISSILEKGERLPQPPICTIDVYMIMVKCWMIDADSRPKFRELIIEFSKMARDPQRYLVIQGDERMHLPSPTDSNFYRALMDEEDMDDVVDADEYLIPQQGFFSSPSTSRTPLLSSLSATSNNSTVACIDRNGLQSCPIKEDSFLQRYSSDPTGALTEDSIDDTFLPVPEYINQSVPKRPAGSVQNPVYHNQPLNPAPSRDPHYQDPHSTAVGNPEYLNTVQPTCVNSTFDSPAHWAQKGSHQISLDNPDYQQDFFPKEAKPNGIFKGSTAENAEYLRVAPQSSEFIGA

C#Cc1cc(Nc2ncnc3cc(OCCOC)ccc23)cc(OCCOCC)c1 [Compound 1]
KD to EGFR (EGFR): too weak to be accurately determined | off-target effect to kinases (kinases): minimal off-target effect | Remaining Percentage (%) (Stability in SIF; 0 min): 100.00% | Remaining Percentage (%) (Stability in SIF; 30 min): 104.86% | Remaining Percentage (%) (Stability in SIF; 60 min): 109.34% | Remaining Percentage (%) (Stability in SIF; 120 min): 105.85% | Remaining Percentage (%) (Stability in SIF; 180 min): 108.93% | Remaining Percentage (%) (Stability in SIF; 240 min): 109.26% | IC50 (CYP 1A2): 33.3 µM | IC50 (CYP 2A6): > 50 µM | IC50 (CYP 2B6): > 50 µM | IC50 (CYP 2D6): 27.6 µM | IC50 (CYP 2E1): > 50 µM | half-life ([1]; Human Liver Microsomes): 34.8 min | microsomal CLint ([1]; Human Liver Microsomes, read-out: CLint (μL/min/mg protein)): 39.8 µL/min/mg | CLint scaled ([1]; Human Liver Microsomes, read-out: Scaled-up CLint): 49.9 mL/min/kg | Remaining Percentage (%) ([1]; With NADPH, 0 min): 100.00% | Remaining Percentage (%) ([1]; With NADPH, 15 min): 70.61% | Remaining Percentage (%) ([1]; With NADPH, 30 min): 51.77% | Remaining Percentage (%) ([1]; With NADPH, 45 min): 38.83% | Remaining Percentage (%) ([1]; With NADPH, 60 min): 30.40% | Remaining Percentage (%) ([1]; Without NADPH, 0 min): 100.00% | Remaining Percentage (%) ([1]; Without NADPH, 15 min): 98.20% | Remaining Percentage (%) ([1]; Without NADPH, 30 min): 92.81% | Remaining Percentage (%) ([1]; Without NADPH, 45 min): 89.22% | Remaining Percentage (%) ([1]; Without NADPH, 60 min): 103.59% | IC50 (HepG2 cells; Galactose, read-out: IC50 (μM)_Galactose): > 150 µM | IC50 (HepG2 cells; Glucose, read-out: IC50 (μM)_Glucose): > 150 µM | Compound precipitation (HepG2 cells; at 50 and 150 μM in mitochondrial toxicity assay): * Compound precipitation observed for Compound 1 at 50 and 150 μM. | IC50 (MDA-MB-231 cells; Homo sapiens, MDA-MB-231, read-out: IC50 on MDA-MB-231): ~0.19 µM | effect on proliferation of MDA-MB-231 cells (MDA-MB-231 cells; compounds at final 2 μM, FIG. 5 panel B): substantially inhibited the proliferation | TNBC tumor growth in PDX mice [2]: effectively inhibited TNBC tumor growth; also recorded: significantly reduced
